{
  "source": "ChEMBL document CHEMBL3046394",
  "about": "“Conyza canadensis (L.) Cronquist response to pre-plant application of residual herbicides in cotton (Gossypium hirsutum L.)” (Crop Prot, 2009)",
  "key": {"Erigeron canadensis [1]": {"test_system": "Erigeron canadensis", "assay": "Herbicidal activity against glyphosate-resistant Conyza canadensis (horseweed) assessed as residual control at 1120 g a.i./ha treated during autumn and spring measured 6 weeks after treatment", "format": "functional"}, "Gossypium hirsutum": {"test_system": "Gossypium hirsutum", "assay": "Toxicity in Gossypium hirsutum (cotton) assessed as formation of injury to cotton", "format": "organism-based", "details": "in vivo"}, "Erigeron canadensis [2]": {"test_system": "Erigeron canadensis", "assay": "Herbicidal activity against glyphosate-resistant Conyza canadensis (horseweed) assessed as residual control at 1120 g a.i./ha treated during autumn and spring measured 8 weeks after treatment", "format": "functional"}, "Erigeron canadensis [3]": {"test_system": "Erigeron canadensis", "assay": "Herbicidal activity against glyphosate-resistant Conyza canadensis (horseweed) assessed as residual control at 1120 g a.i./ha treated during autumn and spring measured 4 weeks after treatment", "format": "functional"}, "Erigeron canadensis [4]": {"test_system": "Erigeron canadensis", "assay": "Herbicidal activity against glyphosate-resistant Conyza canadensis (horseweed) assessed as residual control at 1680 g a.i./ha treated during autumn and spring measured 4 weeks after treatment", "format": "functional"}, "Erigeron canadensis [5]": {"test_system": "Erigeron canadensis", "assay": "Herbicidal activity against glyphosate-resistant Conyza canadensis (horseweed) assessed as residual control at 1680 g a.i./ha treated during autumn and spring measured 8 weeks after treatment", "format": "functional"}, "Erigeron canadensis [6]": {"test_system": "Erigeron canadensis", "assay": "Herbicidal activity against glyphosate-resistant Conyza canadensis (horseweed) assessed as residual control at 1680 g a.i./ha treated during autumn and spring measured 6 weeks after treatment", "format": "functional"}, "Erigeron canadensis [7]": {"test_system": "Erigeron canadensis", "assay": "Herbicidal activity against glyphosate-resistant Conyza canadensis (horseweed) assessed as residual control at 47 g a.i./ha treated during autumn and spring measured 6 weeks after treatment", "format": "functional"}, "Erigeron canadensis [8]": {"test_system": "Erigeron canadensis", "assay": "Herbicidal activity against glyphosate-resistant Conyza canadensis (horseweed) assessed as residual control at 47 g a.i./ha treated during autumn and spring measured 8 weeks after treatment", "format": "functional"}, "Erigeron canadensis [9]": {"test_system": "Erigeron canadensis", "assay": "Herbicidal activity against glyphosate-resistant Conyza canadensis (horseweed) assessed as residual control at 47 g a.i./ha treated during autumn and spring measured 4 weeks after treatment", "format": "functional"}, "Erigeron canadensis [10]": {"test_system": "Erigeron canadensis", "assay": "Herbicidal activity against glyphosate-resistant Conyza canadensis (horseweed) assessed as residual control at 1400 g a.i./ha treated during autumn and spring measured 8 weeks after treatment", "format": "functional"}, "Erigeron canadensis [11]": {"test_system": "Erigeron canadensis", "assay": "Herbicidal activity against glyphosate-resistant Conyza canadensis (horseweed) assessed as residual control at 1400 g a.i./ha treated during autumn and spring measured 4 weeks after treatment", "format": "functional"}, "Erigeron canadensis [12]": {"test_system": "Erigeron canadensis", "assay": "Herbicidal activity against glyphosate-resistant Conyza canadensis (horseweed) assessed as residual control at 1400 g a.i./ha treated during autumn and spring measured 6 weeks after treatment", "format": "functional"}, "Erigeron canadensis [13]": {"test_system": "Erigeron canadensis", "assay": "Herbicidal activity against glyphosate-resistant Conyza canadensis (horseweed) assessed as residual control at 71 g a.i./ha treated during autumn and spring measured 8 weeks after treatment", "format": "functional"}, "Erigeron canadensis [14]": {"test_system": "Erigeron canadensis", "assay": "Herbicidal activity against glyphosate-resistant Conyza canadensis (horseweed) assessed as residual control at 71 g a.i./ha treated during autumn and spring measured 6 weeks after treatment", "format": "functional"}, "Erigeron canadensis [15]": {"test_system": "Erigeron canadensis", "assay": "Herbicidal activity against glyphosate-resistant Conyza canadensis (horseweed) assessed as residual control at 71 g a.i./ha treated during autumn and spring measured 4 weeks after treatment", "format": "functional"}, "Erigeron canadensis [16]": {"test_system": "Erigeron canadensis", "assay": "Herbicidal activity against glyphosate-resistant Conyza canadensis (horseweed) assessed as residual control at 420 g a.i./ha treated during autumn and spring measured 4 weeks after treatment", "format": "functional"}, "Erigeron canadensis [17]": {"test_system": "Erigeron canadensis", "assay": "Herbicidal activity against glyphosate-resistant Conyza canadensis (horseweed) assessed as residual control at 420 g a.i./ha treated during autumn and spring measured 6 weeks after treatment", "format": "functional"}, "Erigeron canadensis [18]": {"test_system": "Erigeron canadensis", "assay": "Herbicidal activity against glyphosate-resistant Conyza canadensis (horseweed) assessed as residual control at 420 g a.i./ha treated during autumn and spring measured 8 weeks after treatment", "format": "functional"}, "[19]": {"assay": "Half life of the compound under anaerobic condition"}, "[20]": {"assay": "Half life of the compound"}, "[21]": {"assay": "Half life of the compound under aerobic condition"}},
  "data": [
    {"smiles": "CN(C)C(=O)Nc1ccc(Cl)c(Cl)c1", "note": "[DCMU]", "values": [
      {"measurement": "Activity", "setting": "Erigeron canadensis [1]", "result": 99, "unit": "%"},
      {"measurement": "Activity", "setting": "Gossypium hirsutum", "result": "Non-toxic"},
      {"measurement": "Activity", "setting": "Erigeron canadensis [2]", "result": 25, "unit": "%"},
      {"measurement": "Activity", "setting": "Erigeron canadensis [3]", "result": 100, "unit": "%"}
    ]},
    {"smiles": "CNc1cnn(-c2cccc(C(F)(F)F)c2)c(=O)c1Cl", "note": "[NORFLURAZONE]", "values": [
      {"measurement": "Activity", "setting": "Erigeron canadensis [4]", "result": 100, "unit": "%"},
      {"measurement": "Activity", "setting": "Erigeron canadensis [5]", "result": 100, "unit": "%"},
      {"measurement": "Activity", "setting": "Gossypium hirsutum", "result": "Non-toxic"},
      {"measurement": "Activity", "setting": "Erigeron canadensis [6]", "result": 100, "unit": "%"}
    ]},
    {"smiles": "COc1cc(OC)nc(Sc2cccc(Cl)c2C(=O)O)n1", "note": "[PYRITHIOBAC]", "values": [
      {"measurement": "Activity", "setting": "Erigeron canadensis [7]", "result": 72, "unit": "%"},
      {"measurement": "Activity", "setting": "Erigeron canadensis [8]", "result": 37, "unit": "%"},
      {"measurement": "Activity", "setting": "Gossypium hirsutum", "result": "Non-toxic"},
      {"measurement": "Activity", "setting": "Erigeron canadensis [9]", "result": 60, "unit": "%"}
    ]},
    {"smiles": "CN(C)C(=O)Nc1cccc(C(F)(F)F)c1", "note": "[FLUOMETURON]", "values": [
      {"measurement": "Activity", "setting": "Gossypium hirsutum", "result": "Non-toxic"},
      {"measurement": "Activity", "setting": "Erigeron canadensis [10]", "result": 80, "unit": "%"},
      {"measurement": "Activity", "setting": "Erigeron canadensis [11]", "result": 98, "unit": "%"},
      {"measurement": "Activity", "setting": "Erigeron canadensis [12]", "result": 99, "unit": "%"}
    ]},
    {"smiles": "C#CCN1C(=O)COc2cc(F)c(N3C(=O)C4=C(CCCC4)C3=O)cc21", "note": "[FLUMIOXAZIN]", "values": [
      {"measurement": "Activity", "setting": "Erigeron canadensis [13]", "result": 35, "unit": "%"},
      {"measurement": "Activity", "setting": "Erigeron canadensis [14]", "result": 99, "unit": "%"},
      {"measurement": "Activity", "setting": "Gossypium hirsutum", "result": "Non-toxic"},
      {"measurement": "Activity", "setting": "Erigeron canadensis [15]", "result": 100, "unit": "%"}
    ]},
    {"smiles": "CSc1nc(NC(C)C)nc(NC(C)C)n1", "note": "[PROMETRYN]", "values": [
      {"measurement": "Activity", "setting": "Erigeron canadensis [1]", "result": 98, "unit": "%"},
      {"measurement": "Activity", "setting": "Gossypium hirsutum", "result": "Non-toxic"},
      {"measurement": "Activity", "setting": "Erigeron canadensis [2]", "result": 20, "unit": "%"},
      {"measurement": "Activity", "setting": "Erigeron canadensis [3]", "result": 100, "unit": "%"}
    ]},
    {"smiles": "CCOc1cc(Oc2ccc(C(F)(F)F)cc2Cl)ccc1[N+](=O)[O-]", "note": "[OXYFLUORFEN]", "values": [
      {"measurement": "Activity", "setting": "Erigeron canadensis [16]", "result": 100, "unit": "%"},
      {"measurement": "Activity", "setting": "Gossypium hirsutum", "result": "Non-toxic"},
      {"measurement": "Activity", "setting": "Erigeron canadensis [17]", "result": 99, "unit": "%"},
      {"measurement": "Activity", "setting": "Erigeron canadensis [18]", "result": 95, "unit": "%"}
    ]},
    {"smiles": "COc1c(Cl)ccc(Cl)c1C(=O)O", "note": "[3,6 DICHLOROMETHOXYBENZOIC ACID]", "values": [
      {"measurement": "half-life", "setting": "[19]", "result": 58, "unit": "days"},
      {"measurement": "half-life", "setting": "[20]", "result": 7, "unit": "days"},
      {"measurement": "half-life", "setting": "[21]", "result": 31, "unit": "days"}
    ]}
  ]
}
